Data: BindingDB's records for doi:10.1016/j.chembiol.2005.02.007 (Stanford University, 2005)

biological target: T1, Protein-glutamine gamma-glutamyltransferase 2 (Homo sapiens, UniProt P21980); assay: TG Inhibition Assay; conditions: pH 7.2
T1 sequence (P21980 whole entry): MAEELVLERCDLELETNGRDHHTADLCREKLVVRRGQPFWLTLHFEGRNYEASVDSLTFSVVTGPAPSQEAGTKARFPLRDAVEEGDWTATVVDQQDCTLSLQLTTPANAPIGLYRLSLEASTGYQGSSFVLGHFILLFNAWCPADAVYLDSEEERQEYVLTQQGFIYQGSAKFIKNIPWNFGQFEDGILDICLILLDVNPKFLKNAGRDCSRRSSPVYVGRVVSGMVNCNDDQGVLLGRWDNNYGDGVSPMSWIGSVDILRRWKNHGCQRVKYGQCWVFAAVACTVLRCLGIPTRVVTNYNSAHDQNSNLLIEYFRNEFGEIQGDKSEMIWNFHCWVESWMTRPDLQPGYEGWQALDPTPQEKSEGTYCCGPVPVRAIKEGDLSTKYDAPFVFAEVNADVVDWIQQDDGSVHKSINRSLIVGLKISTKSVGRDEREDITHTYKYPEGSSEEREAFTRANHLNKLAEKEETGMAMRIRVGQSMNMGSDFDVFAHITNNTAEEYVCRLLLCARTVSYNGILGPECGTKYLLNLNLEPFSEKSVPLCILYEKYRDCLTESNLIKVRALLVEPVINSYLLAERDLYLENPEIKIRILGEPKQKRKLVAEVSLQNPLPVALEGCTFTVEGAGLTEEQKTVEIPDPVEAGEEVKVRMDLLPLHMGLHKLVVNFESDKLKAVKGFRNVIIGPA
Text: Recombinant of human TG2 was expressed in E.coli and purified to >90% homogeneity.

Ki	Compound
310 µM	O=C(N[C@@H](Cc1c[nH]c2ccc(O)cc12)C(=O)NCC1CC(Br)=NO1)OCc1ccccc1 (some centres undefined) [Dihydroisoxazole, 1f]
61 µM	O=C(N[C@@H](Cc1ccccc1)C(=O)NCC1CC(Br)=NO1)OCCc1ccccc1 (some centres undefined) [Dihydroisoxazole, 3d]
43 µM	O=C(N[C@@H](Cc1ccccc1)C(=O)NCC1CC(Br)=NO1)Oc1ccc2ccccc2c1 (some centres undefined) [Dihydroisoxazole, 3e]
87 µM	O=C(N[C@@H](Cc1ccccc1)C(=O)NCC1CC(Br)=NO1)OCC1=Cc2ccccc2S1(=O)=O (some centres undefined) [Dihydroisoxazole, 3f]
